From the supplement of paper PMC10307832

Assays:
Assay in all cases: relative viability (nuclei count vs DMSO), 5 days (fraction); higher = more cells survive
Idelalisib + Vorinostat = compound: CC[C@H](Nc1ncnc2[nH]cnc12)c1nc2cccc(F)c2c(=O)n1-c1ccccc1 [Idelalisib] + O=C(CCCCCCC(=O)Nc1ccccc1)NO [Vorinostat] (partner 1 µM)
In short: (§1)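 Cells from lung cancer lines were seeded into 1536-well plates and, one day later, dosed by pin tool. Treatments were either a single drug or a fixed dose of an anchor drug with five library-drug doses (not always all listed) in √10 steps. After 5 days, nuclei were stained in a one-step fixation (final 0.05% Triton X-100, 1% formaldehyde, 1 ug/ml Hoechst) and counted on 4× images, and relative viability is the treated-to-vehicle nuclei ratio, as the median of duplicate plates.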

Pemetrexed + Alpelisib = compound: Nc1nc2[nH]cc(CCc3ccc(C(=O)N[C@@H](CCC(=O)O)C(=O)O)cc3)c2c(=O)[nH]1 [Pemetrexed] + Cc1nc(NC(=O)N2CCC[C@H]2C(N)=O)sc1-c1ccnc(C(C)(C)C(F)(F)F)c1 [Alpelisib] (partner 2 µM)
In short: as §1

Idelalisib + Linsitinib = compound: CC[C@H](Nc1ncnc2[nH]cnc12)c1nc2cccc(F)c2c(=O)n1-c1ccccc1 [Idelalisib] + C[C@]1(O)C[C@@H](c2nc(-c3ccc4ccc(-c5ccccc5)nc4c3)c3c(N)nccn32)C1 [Linsitinib] (partner 1 µM)
In short: as §1

Pemetrexed + Navitoclax = compound: Nc1nc2[nH]cc(CCc3ccc(C(=O)N[C@@H](CCC(=O)O)C(=O)O)cc3)c2c(=O)[nH]1 [Pemetrexed] + CC1(C)CCC(c2ccc(Cl)cc2)=C(CN2CCN(c3ccc(C(=O)NS(=O)(=O)c4ccc(N[C@H](CCN5CCOCC5)CSc5ccccc5)c(S(=O)(=O)C(F)(F)F)c4)cc3)CC2)C1 [Navitoclax] (partner 0.5 µM)
In short: as §1

Cell Line	relative viability (Idelalisib + Vorinostat; first compound 0.04 µM)	relative viability (Idelalisib + Vorinostat; first compound 0.1265 µM)	relative viability (Idelalisib + Vorinostat; first compound 0.4 µM)	relative viability (Idelalisib + Vorinostat; first compound 1.265 µM)	relative viability (Idelalisib + Vorinostat; first compound 4 µM)	relative viability (Pemetrexed + Alpelisib; first compound 0.002 µM)	relative viability (Pemetrexed + Alpelisib; first compound 0.006325 µM)	relative viability (Pemetrexed + Alpelisib; first compound 0.02 µM)	relative viability (Pemetrexed + Alpelisib; first compound 0.06325 µM)	relative viability (Pemetrexed + Alpelisib; first compound 0.2 µM)	relative viability (Idelalisib + Linsitinib; first compound 0.04 µM)	relative viability (Idelalisib + Linsitinib; first compound 0.1265 µM)	relative viability (Idelalisib + Linsitinib; first compound 0.4 µM)	relative viability (Idelalisib + Linsitinib; first compound 1.265 µM)	relative viability (Idelalisib + Linsitinib; first compound 4 µM)	relative viability (Pemetrexed + Navitoclax; first compound 0.002 µM)	relative viability (Pemetrexed + Navitoclax; first compound 0.006325 µM)	relative viability (Pemetrexed + Navitoclax; first compound 0.02 µM)	relative viability (Pemetrexed + Navitoclax; first compound 0.06325 µM)	relative viability (Pemetrexed + Navitoclax; first compound 0.2 µM)
NCI-H2342	0.801	0.736	0.689	0.664	0.736															
NCI-H1648	0.395	0.483	0.357	0.224	0.31															
ABC-1	1.01	1.13	0.751	1.03	1.39	1.13	0.937	1.28	1.03	0.87	0.765	0.698	0.827	0.651	0.689					
NCI-H661	0.81	0.779	0.828	0.876	0.814	0.732	0.563	0.621	0.636	0.794	0.588	0.551	0.373	0.389	0.458					
NCI-H1563						0.904	0.922	0.976	0.875	0.954	1.16	1.29	1.07	1.15	0.832					
NCI-H522	0.964	0.846	0.929	0.901	0.956															
NCI-H1299						1.07	1.03	1.01	1.01	1.06	1.03	1.07	0.978	0.959	0.928	1.05	0.981	1.1	1.04	1
NCI-H358	0.643	0.63	0.588	0.567	0.593	0.917	0.79	0.538	0.314	0.27	0.805	0.794	0.638	0.64	0.637					
LCLC-103H	0.864	0.926	0.664	0.798	0.58	0.971	0.992	1.04	1.01	0.959	1.11	0.948	0.886	1.05	0.704					
Calu-6						0.995	1.01	1.05	0.918	0.954	1.06	1	0.889	0.942	0.93	0.786	0.876	0.897	0.872	0.782
NCI-H650	0.495	0.449	0.369	0.419	0.421	1.17	0.999	1.11	0.956	1.09	0.934	0.981	0.789	0.798	0.775					
